Data from patent US20250145589A1, “PYRIDINE DERIVATIVE AND USE THEREOF” (SICHUAN HUIYU PHARMACEUTICAL CO., LTD., priority 2021, published 2025).
Like-named read-outs stand apart in the source and are kept apart here.

Tests used:
PI3Kα = PI3Kα (Homo sapiens (Human), UniProt P42336); test: Inhibition of PI3Kα efficacy assay (ADP-Glo kinase assay); format: biochemical; settings: read-out: PI3Kα inhibitory activity (IC50)
Protocol: Inhibition of PI3Kα Efficacy assay The ADP-Glo™ kinase assay was used to assess the inhibition of PI3Kα with our compounds. The utilized proteins and assay reagents were obtained from the ADP-Glo™ Kinase Assay Kit (Promega). Initially, a 2 mM stock solution of the test compound (dissolved in DMSO) was serially diluted in five-fold concentrations using DMSO to obtain eight working solutions 1 (200′). […] Subsequently, 2 μL of 2.5×PI and ATP solution mixture were added to each well, mixed, and incubated at RT for 60 minutes. Then, 5 μL of ADP-Glo (containing 10 mM MgCl2) reagent was added to each well, mixed, and incubated at RT for 40 minutes. Finally, 10 μL of the Kinase Detection Reagent was added to each well, mixed, and incubated at RT for 40 minutes. […] Data were analyzed using GraphPad Prism with log(inhibitor) vs. response—Variable Slope(four parameters) fitting calculations for […]. (Note: The negative control refers to the group without inhibitor, and the blank control refers to the group without enzyme.) The data were presented in Tables 1 to 4.

PI3Kδ = PI3Kδ (Homo sapiens (Human), UniProt O00329); test: Inhibition of PI3Kδ efficacy assay (ADP-Glo kinase assay); format: biochemical; settings: read-out: PI3Kδ inhibitory activity (IC50)
Sequence of PI3Kδ (O00329 whole entry): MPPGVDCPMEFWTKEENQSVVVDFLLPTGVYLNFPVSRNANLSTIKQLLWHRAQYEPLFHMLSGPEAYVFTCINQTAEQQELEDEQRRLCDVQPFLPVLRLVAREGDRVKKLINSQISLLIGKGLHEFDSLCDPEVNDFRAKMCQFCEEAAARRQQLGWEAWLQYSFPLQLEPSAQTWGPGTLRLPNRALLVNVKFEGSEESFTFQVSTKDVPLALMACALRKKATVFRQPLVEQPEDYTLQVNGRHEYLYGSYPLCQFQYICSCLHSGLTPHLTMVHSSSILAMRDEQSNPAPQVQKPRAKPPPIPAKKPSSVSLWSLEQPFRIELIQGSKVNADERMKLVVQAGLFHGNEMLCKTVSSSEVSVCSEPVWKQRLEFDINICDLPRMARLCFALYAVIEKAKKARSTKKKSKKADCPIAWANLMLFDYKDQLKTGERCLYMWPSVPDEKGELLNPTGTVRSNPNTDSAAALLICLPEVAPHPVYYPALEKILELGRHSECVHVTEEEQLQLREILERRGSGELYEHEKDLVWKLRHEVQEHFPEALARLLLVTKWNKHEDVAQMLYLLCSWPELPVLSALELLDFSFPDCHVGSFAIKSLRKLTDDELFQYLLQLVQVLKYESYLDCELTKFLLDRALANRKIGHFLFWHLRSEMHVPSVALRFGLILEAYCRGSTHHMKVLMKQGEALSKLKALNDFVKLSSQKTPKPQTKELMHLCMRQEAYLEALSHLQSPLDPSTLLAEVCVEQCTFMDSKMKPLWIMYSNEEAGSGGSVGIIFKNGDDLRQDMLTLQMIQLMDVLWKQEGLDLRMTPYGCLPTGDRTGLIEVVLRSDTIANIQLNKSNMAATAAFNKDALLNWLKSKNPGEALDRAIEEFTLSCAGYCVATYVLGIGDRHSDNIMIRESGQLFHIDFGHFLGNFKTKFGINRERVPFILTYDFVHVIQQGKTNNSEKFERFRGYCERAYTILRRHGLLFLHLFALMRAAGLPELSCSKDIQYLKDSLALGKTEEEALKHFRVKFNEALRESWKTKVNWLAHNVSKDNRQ
Sequence of PI3Kδ (P27986 whole entry partner): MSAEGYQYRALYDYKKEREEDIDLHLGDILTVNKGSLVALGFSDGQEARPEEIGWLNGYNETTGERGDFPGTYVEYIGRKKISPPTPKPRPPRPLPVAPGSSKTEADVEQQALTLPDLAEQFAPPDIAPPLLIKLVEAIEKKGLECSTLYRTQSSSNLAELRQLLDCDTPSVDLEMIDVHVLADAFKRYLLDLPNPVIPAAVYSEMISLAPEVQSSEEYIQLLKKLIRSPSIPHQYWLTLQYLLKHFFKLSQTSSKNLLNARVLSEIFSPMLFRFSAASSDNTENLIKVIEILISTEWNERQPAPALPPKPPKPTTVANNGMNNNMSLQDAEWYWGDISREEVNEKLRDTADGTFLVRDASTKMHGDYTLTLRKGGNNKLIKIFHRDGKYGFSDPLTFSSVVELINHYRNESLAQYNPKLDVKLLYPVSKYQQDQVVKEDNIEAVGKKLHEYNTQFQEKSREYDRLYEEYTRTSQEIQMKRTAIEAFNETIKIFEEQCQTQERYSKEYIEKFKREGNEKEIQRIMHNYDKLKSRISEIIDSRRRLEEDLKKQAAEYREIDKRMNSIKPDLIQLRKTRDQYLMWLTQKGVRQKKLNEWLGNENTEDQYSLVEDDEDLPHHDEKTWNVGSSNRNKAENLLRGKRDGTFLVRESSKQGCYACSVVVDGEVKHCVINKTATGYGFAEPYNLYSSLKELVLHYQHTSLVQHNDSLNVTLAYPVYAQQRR
Protocol: Test Example 2: Inhibition of PI3Kδ Efficacy assay The ADP-Glo™ kinase assay was used to assess the inhibition of PI3Kδ with our compounds. The utilized proteins and assay reagents were obtained from the ADP-Glo™ Kinase Assay Kit (Promega). Initially, a 2 mM stock solution of the test compound (dissolved in DMSO) was serially diluted in five-fold concentrations using DMSO to obtain eight working solutions 1 (200×) Subsequently, each of the eight working solutions 1 was further diluted in a 20-fold gradient by adding 5 μL into 95 μL of ddH2O, resulting in eight working solutions 2 (10×). […] Subsequently, 2 μL of 2.5×PI and ATP solution mixture were added to each well, mixed, and incubated at RT for 60 minutes. Then, 5 μL of ADP-Glo (containing 10 mM MgCl2) reagent was added to each well, mixed, and incubated at RT for 40 minutes. Finally, 10 μL of the Kinase Detection Reagent was added to each well, mixed, and incubated at RT for 40 minutes. Luminescence values were recorded using a multi-mode microplate reader with luminescence channel settings, and the inhibitory rate was calculated using the following formula: [formula] Data were analyzed using GraphPad Prism with log(inhibitor) vs. response—Variable Slope(four parameters) fitting calculations for IC50 values.

[1] = tested on: NCI-H358 cells (KRAS G12C mutant); test: NCI-H358 cell proliferation inhibition (CellTiter-Glo); format: cell-based; settings: Homo sapiens, NCI-H358, 72 h; H358 cells (G12C mutation), 3 days, Table 6; read-out: NCI-H358 (IC50)
Protocol: The CellTiter-Glo®, assay was used to detect the number of viable cells, in order to evaluate the anti-proliferation efficacy of compounds. […] The compounds were serially diluted 5-fold in DMSO to obtain 8 concentrations, and then further diluted with RPMI-640 (10% FBS) cell culture medium to obtain the working solutions (5′), 20 μL of each working solution was added to the cell culture supernatant in each well, and the plate was further incubated for 3 days at 37° C. with 5% CO2. The plate was then equilibrated with CellTiter-Glo® reagent at room temperature (25° C.) for 10-30 minutes. After aspirating 50 μL of the medium, 50 μL of CellTiter-Glo® reagent was added. The cells were thoroughly mixed with the CellTiter-Glo® reagent using a microplate shaker for 2 minutes, and then incubated at room temperature for 10 minutes. The 96-well plate was placed in a multi-mode microplate reader to record the luminescence values (RLU). The inhibition rate was calculated through the following equation: [formula] Data were analyzed using GraphPad Prism for IC50 values (Note: The negative control refers to the group without inhibitor).

Sequence of PI3Kα (P42336 whole entry): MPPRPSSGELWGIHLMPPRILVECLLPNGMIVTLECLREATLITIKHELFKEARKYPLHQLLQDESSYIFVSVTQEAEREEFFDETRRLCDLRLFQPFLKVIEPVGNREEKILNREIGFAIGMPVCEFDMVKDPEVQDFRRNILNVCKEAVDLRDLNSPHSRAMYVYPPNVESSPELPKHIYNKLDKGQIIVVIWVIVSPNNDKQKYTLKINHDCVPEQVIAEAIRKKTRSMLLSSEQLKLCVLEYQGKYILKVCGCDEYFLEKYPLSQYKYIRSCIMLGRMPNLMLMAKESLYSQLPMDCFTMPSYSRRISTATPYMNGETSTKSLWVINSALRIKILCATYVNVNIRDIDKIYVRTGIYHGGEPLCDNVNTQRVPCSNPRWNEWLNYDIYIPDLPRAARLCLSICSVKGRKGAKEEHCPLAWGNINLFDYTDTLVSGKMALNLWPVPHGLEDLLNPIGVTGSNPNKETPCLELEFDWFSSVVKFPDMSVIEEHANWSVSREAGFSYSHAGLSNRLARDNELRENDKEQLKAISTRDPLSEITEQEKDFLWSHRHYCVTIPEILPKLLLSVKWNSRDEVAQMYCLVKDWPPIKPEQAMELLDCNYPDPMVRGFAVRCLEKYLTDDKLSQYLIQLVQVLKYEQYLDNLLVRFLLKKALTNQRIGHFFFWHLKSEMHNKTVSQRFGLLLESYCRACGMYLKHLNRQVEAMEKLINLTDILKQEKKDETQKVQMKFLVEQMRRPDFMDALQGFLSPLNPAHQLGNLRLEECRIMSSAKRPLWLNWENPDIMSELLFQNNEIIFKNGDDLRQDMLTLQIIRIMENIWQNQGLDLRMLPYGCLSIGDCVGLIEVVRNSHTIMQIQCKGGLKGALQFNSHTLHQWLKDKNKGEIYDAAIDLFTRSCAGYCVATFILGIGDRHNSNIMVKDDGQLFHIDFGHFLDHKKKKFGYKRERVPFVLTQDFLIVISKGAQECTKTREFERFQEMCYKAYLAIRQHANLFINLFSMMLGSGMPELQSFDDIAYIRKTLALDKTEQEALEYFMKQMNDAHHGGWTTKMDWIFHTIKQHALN
Sequence of PI3Kα (P27986 whole entry partner): as the sequence (P27986 whole entry partner) above

SMILES | IC50 (PI3Kα; Table 2) [nM] | IC50 (PI3Kδ; Table 2) [nM] | IC50 [1] [nM] | IC50 (PI3Kα; Table 1) [nM] | IC50 (PI3Kδ; Table 1) [nM]
C=C(F)C(=O)N1CCN(c2ncnc3ccc(-c4cnc(OC5CCCC5)c(NS(=O)(=O)c5ccc(F)cc5F)c4)cc23)CC1 [Example 108, N-(2-(cyclopentyloxy)-5-(4-(4-(2-fluoroacryloyl)piperazin-1-yl)quinazolin-6-yl)pyridin-3-yl)-2,4-difluorobenzenesulfonamide] | 161 | 268 |  |  | 
COc1ncc(-c2ccc3ncnc(NC4CCN(C(=O)/C=C/C(C)=O)CC4)c3c2)cc1NS(=O)(=O)c1ccc(F)cc1F [Example 130, (E)-2,4-difluoro-N-(2-methoxy-5-(4-((1-(4-oxopent-2-enoyl)piperidin-4-yl)amino)quinazolin-6-yl)pyridin-3-yl)benzenesulfonamide] | 2.6 | 15.2 | 442 |  | 
C=C(F)C(=O)N1CC2(CCN(c3ncnc4ccc(-c5cnc(OC)c(NS(=O)(=O)c6c(F)cccc6F)c5)cc34)C2)C1 [Example 48, 2,6-difluoro-N-(5-(4-(2-(2-fluoroacryloyl)-2,6-diazaspiro[3.4]octan-6-yl)quinazolin-6-yl)-2-methoxypyridin-3-yl) benzenesulfonamide] | 0.63 | 13.2 | 52.6 |  | 
C=C(F)C(=O)N1CC2(CCN(c3ncnc4ccc(-c5cnc(OC)c(NS(=O)(=O)c6ccc(F)cc6F)c5)cc34)C2)C1 [Example 60, 2,4-difluoro-N-(5-(4-(2-(2-fluoroacryloyl)-2,6-diazaspiro[3.4]octan-6-yl)quinazolin-6-yl)-2-methoxy-pyridin-3-yl) benzene-sulfonamide] | 3.9 | 13.5 | 48.2 |  | 
COc1ncc(-c2ccc3ncnc(N4CCN(C(=O)/C=C/C(F)(F)F)CC4)c3c2)cc1NS(=O)(=O)c1c(F)cccc1F [Example 44, (E)-2,6-difluoro-N-(2-methoxy-5-(4-(4-(4,4,4-trifluorobut-2-enoyl)piperazin-1-yl)quinazolin-6-yl)pyridin-3-yl) benzenesulfonamide] | 4.3 | 17.5 | 41.6 |  | 
C=CC(=O)N1CCN(c2ncnc3ccc(-c4cnc(OC)c(N(C)S(=O)(=O)c5c(F)cccc5F)c4)cc23)CC1 [Example 82, N-(5-(4-(4-acryloylpiperazin-1-yl)quinazolin-6-yl)-2-methoxypyridin-3-yl)-2,6-difluoro-N-methylbenzenesulfonamide] | 89.9 | 75.6 |  |  | 
C=C(F)C(=O)N1CC2(CCN(c3ncnc4ccc(-c5cnc(OC)c(NS(=O)(=O)c6c(F)cccc6F)c5)cc34)CC2)C1 [Example 47, 2,6-difluoro-N-(5-(4-(2-(2-fluoroacryloyl)-2,7-diazaspiro[3.5]nonan-7-yl)quinazolin-6-yl)-2-methoxypyridin-3-yl) benzenesulfonamide] | 2.2 | 25.2 | 34.3 |  | 
CC(=O)/C=C/C(=O)N1CCN(c2ncnc3ccc(-c4cncc(NS(=O)(=O)c5ccc(F)cc5F)c4)cc23)CC1 [Example 28, (E)-2,4-difluoro-N-(5-(4-(4-(4-oxopent-2-enoyl)piperazin-1-yl)quinazolin-6-yl)pyridin-3-yl)benzenesulfonamide] |  |  |  | 1.8 | 49.7
CNc1ncc(-c2ccc3ncnc(N4CCN(C(=O)/C=C/C(C)=O)CC4)c3c2)cc1NS(=O)(=O)c1ccc(F)cc1F [Example 105, (E)-2,4-difluoro-N-(2-(methylamino)-5-(4-(4-(4-oxopent-2-enoyl)piperazin-1-yl)quinazolin-6-yl)pyridin-3-yl)benzenesulfonamide] | 8.6 | 38.5 |  |  | 
C=CC(=O)N1CCN(c2ncnc3ccc(-c4cnc(OC)c(NCc5ccc(F)cc5F)c4)cc23)CC1 [Example 126, 1-(4-(6-(5-((2,4-difluorobenzyl)amino)-6-methoxypyridin-3-yl)quinazolin-4-yl)piperazin-1-yl)prop-2-en-1-one] | 131 | 52.7 |  |  | 

More lines, now with the values ahead:

IC50 (PI3Kα; Table 2) [nM] | IC50 (PI3Kδ; Table 2) [nM] | IC50 [1] [nM] | IC50 (PI3Kα; Table 1) [nM] | IC50 (PI3Kδ; Table 1) [nM] | SMILES
5.9 | 24.3 | 14.4 |  |  | COc1ncc(-c2ccc3ncnc(N4CCN(C(=O)C5=CC(=O)CCC5)CC4)c3c2)cc1NS(=O)(=O)c1ccc(F)cc1F [Example 72, 2,4-difluoro-N-(2-methoxy-5-(4-(4-(3-oxocyclohex-1-ene-1-carbonyl)piperazin-1-yl)quinazolin-6-yl)pyridin-3-yl)benzenesulfonamide]
 |  | 333 | 12.6 | 68.7 | C=CC(=O)N1CCN(c2ncnc3ccc(-c4cnc(Cl)c(NS(=O)(=O)c5ccc(F)cc5F)c4)cc23)CC1 [Example 33, N-(5-(4-(4-acryloylpiperazin-1-yl)quinazolin-6-yl)-2-chloropyridin-3-yl)-2,4-difluorobenzenesulfonamide]
117 | 117 |  |  |  | C=CC(=O)N1CCN(c2ncnc3ccc(-c4cnc(OC5CCCC5)c(NS(=O)(=O)c5ccc(F)cc5F)c4)cc23)CC1 [Example 106, N-(5-(4-(4-acryloylpiperazin-1-yl)quinazolin-6-yl)-2-(cyclopentyloxy)pyridin-3-yl)-2,4-difluorobenzenesulfonamide]
1.2 | 43.5 | 39.5 |  |  | C=CC(=O)N1CC(N2CCN(c3ncnc4ccc(-c5cnc(OC)c(NS(=O)(=O)c6ccc(F)cc6F)c5)cc34)CC2)C1 [Example 55, N-(5-(4-(4-(1-acryloylazetidin-3-yl)piperazin-1-yl)quinazolin-6-yl)-2-methoxypyridin-3-yl)-2,4-difluorobenzene-sulfonamide]
1.9 | 33.4 | 29.9 |  |  | C=C(F)C(=O)N1CC(N2CCN(c3ncnc4ccc(-c5cnc(OC)c(NS(=O)(=O)c6ccc(F)cc6F)c5)cc34)CC2)C1 [Example 57, 2,4-difluoro-N-(5-(4-(4-(1-(2-fluoroacryloyl)azetidin-3-yl)piperazin-1-yl)quinazolin-6-yl)-2-methoxypyridin-3-yl)benzenesulfon-amide]
 |  |  | 1.3 | 20.1 | C=CC(=O)N1CCN(c2ncnc3ccc(-c4cnc(OC)c(NS(=O)(=O)c5ccc(Cl)s5)c4)cc23)CC1 [Example 37, N-(5-(4-(4-acryloylpiperazin-1-yl)quinazolin-6-yl)-2-methoxypyridin-3-yl)-5-chlorothiophene-2-sulfonamide]
 |  |  | 1.8 | 27.3 | C=CC(=O)N1CCN(c2ncnc3ccc(-c4cncc(NS(=O)(=O)c5ccc(F)cc5F)c4)cc23)CC1 [Example 27, N-(5-(4-(4-acryloylpiperazin-1-yl)quinazolin-6-yl)pyridin-3-yl)-2,4-difluorobenzenesulfonamide]
 |  |  | 149 | 336 | C=CC(=O)N1CCN(c2nc(C#N)nc3ccc(-c4cnc(OC)c(NS(=O)(=O)c5ccc(F)cc5F)c4)cc23)CC1 [Example 31, N-(5-(4-(4-acryloylpiperazin-1-yl)-2-cyanoquinazolin-6-yl)-2-methoxypyridin-3-yl)-2,4-difluorobenzenesulfonamide]
 |  |  | 430 | 1840 | C=CC(=O)N1CCN(c2nc(N)nc3ccc(-c4cnc(OC)c(NS(=O)(=O)c5ccc(F)cc5F)c4)cc23)CC1 [Example 30, N-(5-(4-(4-acryloylpiperazin-1-yl)-2-aminoquinazolin-6-yl)-2-methoxypyridin-3-yl)-2,4-difluorobenzenesulfonamide]
 |  |  | 2260 | > 5000 | C=CC(=O)N1CCN(c2nc(O)nc3ccc(-c4cnc(OC)c(NS(=O)(=O)c5ccc(F)cc5F)c4)cc23)CC1 [Example 32, N-(5-(4-(4-acryloylpiperazin-1-yl)-2-hydroxyquinazolin-6-yl)-2-methoxypyridin-3-yl)-2,4-difluorobenzenesulfonamide]
